Data taken from patent publication US9006257B2, “Bicyclic compounds as mPGES-1 inhibitors” (Glenmark Pharmaceuticals S.A., priority 2012, dated 2015).

Molecular target: T1, Recombinant human mPGES-1 (Homo sapiens, UniProt O14684)
T1 construct: made in house; host or cells: CHO cells
T1 sequence (O14684 1-152): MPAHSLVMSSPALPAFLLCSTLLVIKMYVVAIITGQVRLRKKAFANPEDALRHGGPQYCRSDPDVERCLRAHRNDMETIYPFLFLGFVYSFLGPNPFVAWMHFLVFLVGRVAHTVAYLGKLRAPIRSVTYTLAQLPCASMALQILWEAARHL
Test: In-vitro mPGES-1 inhibitor screening (inhibition of PGE2 formation from PGH2, HTRF detection)
Type: biochemical
Details: for inhibition at 1 µM: 1 μM test compound, read-out: Percentage inhibition at 1 μM; for inhibition at 1 µM / inhibition at 10 µM: crude microsomal fraction, 15 μM PGH2; for inhibition at 10 µM: 10 μM test compound, read-out: Percentage inhibition at 10 μM; for IC50: class symbol, concentration response curve
Summary of the method: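 Recombinant human mPGES-1 from CHO microsomes (40-60 μg/mL protein) preincubated 10 min with compound in 0.1 M potassium phosphate, 2 mM EDTA, 2.5 mM GSH, 0.5% DMSO; 15 μM PGH2 reacted 1 min, stopped with stannous chloride. PGE2 by HTRF; IC50 by nonlinear regression of % inhibition.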

| inhibition at 1 µM | inhibition at 10 µM | IC50 | Structure (SMILES) |
| --- | --- | --- | --- |
| 90.6% | 94.5% | < 50 nM | CC(C)Nc1ncnc2c(NC(=O)c3c(Cl)ccc(CNC(=O)C(C)(C)C)c3F)cccc12 [Example-64, 6-Chloro-2-fluoro-N-(4-(isopropylamino)quinazolin-8-yl)-3-(pivalamidomethyl)benzamide] |
| 96.5% | 100% | < 50 nM | CC(C)(C)Nc1ncnc2c(NC(=O)c3cc(CNC(=O)C(C)(C)C)ccc3Cl)cccc12 [Example-67, N-(4-(tert-Butylamino)quinazolin-8-yl)-2-chloro-5-(pivalamidomethyl)benzamide] |
| 98% | 99.5% | < 50 nM | CC(C)(C)C(=O)NCc1ccc(Cl)c(C(=O)Nc2cccc3c(O[C@H]4CC[C@H](C(F)(F)F)CC4)ncnc23)c1 [Example-39, 2-Chloro-5-(pivalamidomethyl)-N-(4-(((1r,4r)-4-(trifluoromethyl)cyclohexyl)oxy)quinazolin-8-yl)benzamide] |
| 97.7% | 98.3% | < 50 nM | CC(C)(C)C(=O)NCc1ccc(Cl)c(C(=O)Nc2cccc3c(Nc4ccc(F)c(C(F)(F)F)c4)ncnc23)c1F [Example-25, 6-Chloro-2-fluoro-N-(4-((4-fluoro-3-(trifluoromethyl)phenyl)amino)quinazolin-8-yl)-3-(pivalamidomethyl)benzamide] |

Further lines, the compound ahead of its results:

| Structure (SMILES) | inhibition at 1 µM | inhibition at 10 µM | IC50 |
| --- | --- | --- | --- |
| CC1(C)CCC(Oc2nccc3c(NC(=O)c4c(Cl)ccc(CNC(=O)C(C)(C)C)c4F)cccc23)CC1 [Example-35, 6-Chloro-N-(1-((4,4-dimethylcyclohexyl)oxy)isoquinolin-5-yl)-2-fluoro-3-(pivalamidomethyl)benzamide] | 100% | 100% | < 50 nM |
| CC(C)(C)C(=O)NCc1ccc(Cl)c(C(=O)Nc2cccc3c(Oc4cccc(C(F)(F)F)c4)ccnc23)c1F [Example-18, 6-Chloro-2-fluoro-3-(pivalamidomethyl)-N-(4-(3-(trifluoromethyl)phenoxy)quinolin-8-yl)benzamide] | 100% | 99.9% | < 50 nM |
| CC(C)(C)Nc1ncnc2c(NC(=O)c3ccc(F)c(CNC(=O)C(C)(C)C)c3Cl)cccc12 [Example-72, N-(4-(tert-Butylamino)quinazolin-8-yl)-2-chloro-4-fluoro-3-(pivalamidomethyl)benzamide] | 86.8% | 98.7% | 50 to 100 nM |
| O=C(Nc1cccc2c(Nc3cccc(C(F)(F)F)c3)ncnc12)c1c(Cl)ccc(CNC(=O)[C@@H]2CCCO2)c1F [Example-23, (S)—N-(4-Chloro-2-fluoro-3-((4-((3-(trifluoromethyl)phenyl)amino)quinazolin-8-yl)carbamoyl)benzyl)tetrahydrofuran-2-carboxamide] | 95% | 94.9% | < 50 nM |
| CC(C)(C)C(=O)NCc1ccc(Cl)c(C(=O)Nc2cccc3c(O[C@H]4CC[C@H](C(F)(F)F)CC4)nccc23)c1 [Example-38, 2-Chloro-5-(pivalamidomethyl)-N-(1-(((1r,4r)-4-(trifluoromethyl)cyclohexyl)oxy)isoquinolin-5-yl)benzamide] | 99.3% | 99.9% | < 50 nM |
| CC(C)(C)C(=O)NCc1ccc(Cl)c(C(=O)Nc2cccc3c(Nc4cccc(C(F)(F)F)c4)ccnc23)c1F [Example-31, 6-Chloro-2-fluoro-3-(pivalamidomethyl)-N-(4-((3-(trifluoromethyl)phenyl)amino)quinolin-8-yl)benzamide] | 98.7% | 98.7% | < 50 nM |
| CC(C)Oc1ncnc2c(NC(=O)c3c(Cl)ccc(CNC(=O)C(C)(C)C)c3F)cccc12 [Example-59, 6-Chloro-2-fluoro-N-(4-isopropoxyquinazolin-8-yl)-3-(pivalamidomethyl)benzamide] | 97.5% | 99.4% | < 50 nM |
| CC(C)(C)C(=O)NCc1ccc(Cl)c(C(=O)Nc2ccnc3c(Nc4cccc(C(F)(F)F)c4)cccc23)c1 [Example-19, 2-Chloro-5-(pivalamidomethyl)-N-(8-((3-(trifluoromethyl)phenyl)amino)quinolin-4-yl)benzamide] | 97.7% | 98.2% | < 50 nM |
